9 molecules from patent US20100093613A1, “METHODS FOR IDENTIFYING AGENTS AND THEIR USE FOR THE PREVENTION OR STABILIZATION OF FIBROSIS” (priority 2007, published 2010) can be followed below.

For assay [1], the system named is Peripheral Blood Mononuclear Cells + Umbilical Vein Endothelial Cells. Kind of assay: BioMAP LPS system (TLR4), scoring of readout parameters. The following applies: LPS (by position); desired change decrease. The format is cell-based, human. The source says:
(§1) Each screened compound is scored according to its modulation of the selected readout parameters. Compounds receive a positive score (score of 1) or negative score (score of 0) for each readout parameter set forth in Table 2 that is modulated in the desired direction. […] Parameters may be penalized by making the positive score a −1 for parameters where regulation is opposite to the desired direction.
(§2) Cell culture. Human umbilical vein endothelial cells (HUVEC) were pooled from multiple donors, cultured according to standard methods, and plated into microtiter plates at passage 4. Cell culture medium for all systems containing HUVEC included hydrocortisone. Coronary artery smooth muscle cells (CASM3C) and umbilical artery smooth muscle cells (HSM3C) were cultured according to standard procedures. Peripheral blood mononuclear cells (PBMC) were prepared from buffy coats from normal human donors according to standard methods. Monocyte-derived macrophages were differentiated in the presence of M-CSF for 7 d according to standard procedures. Human dermal fibroblasts were pooled from 3 donors, cultured according to standard methods, and plated confluent 24 h before stimulation. Cell culture medium for all systems containing fibroblasts and keratinocytes contained low hydrocortisone. Epidermal keratinocytes and bronchial epithelial cells from 3 donors were cultured according to standard procedures and pooled when plated into microtiter plates. For keratinocyte-fibroblast co-cultures, cells were plated simultaneously 24 h before stimulation. For bronchial epithelial cell-fibroblast co-cultures, fibroblasts were plated and cultured 48 before addition of epithelial cells, then cultured another 24 hr before stimulation. Concentrations/amounts of agents added to confluent microtiter plates to build each system: cytokines (IL-1β, 1 ng/ml; TNF-α, 5 ng/ml; IFN-γ, 20 ng/ml; IL-4, 5 ng/ml), activators (SAg, 20 ng/ml; histamine, 10 μM; zymosan, 10 μg/ml; or LPS, 2 ng/ml), growth factors (TGF-β, 5 ng/ml; EGF, bFGF, and PDGF-BB, 10 ng/ml), and PBMC (7.5×10^4 cells/well) or macrophages (3.5×10^4 cells/well).
(§3) Compounds. Compounds were prepared in the solvent directed, added 1 hr before stimulation of the cells, and were present during the 24 hr stimulation period for the measurement of parameters listed in Table 2. For proliferation, compounds added 1 hr before stimulation of the cells with cytokines, and were present during the 48 to 72 hr assay. If prepared in DMSO, the final concentration of solvent was 0.1% or less.
(§4) Readout Parameter Measurements. The levels of readout parameters were measured by ELISA. Briefly, microtiter plates are treated, blocked, and then incubated with primary antibodies or isotype control antibodies (0.01-0.5 microg/ml) for 1 hr. After washing, plates were incubated with a peroxidase-conjugated anti-mouse IgG secondary antibody or a biotin-conjugated anti-mouse IgG antibody for 1 hr followed by streptavidin-HRP for 30 min. Plates were washed and developed with TMB substrate and the absorbance (OD) was read at 450 nm (subtracting the background absorbance at 650 nm). Quantitation of TNF-alpha or PGE2 in the LPS system was done using a commercially available kit according to the manufacturer's directions. Proliferation of endothelial cells (HUVEC and CAEC), smooth muscle cells (SMC and CASMC), and PBMC (T cells) was quantitated by Alamar Blue reduction or SRB.
(§5) Data analysis. Mean OD values for each parameter were calculated for compounds run in duplicate. The mean value (or single well OD value) for each parameter in a treated sample was then divided by the mean value from an appropriate control to generate a ratio. All ratios were then log10 transformed. 95% significance prediction envelopes (grey shading in Figures) were calculated for historical controls.

Assay [2] concerns Bronchial epithelial cells. Kind of assay: BioMAP BE3C system (IL-1β + TNF-α + IFN-γ), scoring of readout parameters. The format is cell-based, human. The following applies: for PAI-1 score: desired change decrease; for EGFR score: desired no change or increase.
From the text: as §1, §2, §3, §4, §5

The next assay has as its system Fibroblasts. As to the kind of experiment: BioMAP HDF3CGF system (IL-1β + TNF-α + IFN-γ + EGF + bFGF + PDGFbb), scoring of readout parameters. To be noted: for PAI-1 score: desired change decrease; for MMP-1 score: desired change increase; for EGFR score: desired no change or increase. The format is cell-based, human.
Assay [3] relates to Bronchial epithelial cells. As to the kind of experiment: BioMAP BE4T system (IL-4 + TNF-a), scoring of readout parameters. The format is cell-based, human. To be noted: for PAI-1 score: desired change decrease; for EGFR score: desired no change or increase. Set-up: key: 1 = modulated in desired direction, 0 = not (−1 = opposite). As to the method:
In the “BE4T” system, bronchial epithelial cells, usually primary human bronchial epithelial cells, are cultured in the presence of TNF-α and IL-4.
as §1, §2, §3, §4, §5

Assay [4] concerns Umbilical Vein Endothelial Cells. As to the kind of experiment: BioMAP 3C system (IL-1β + TNF-α + IFN-γ), scoring of readout parameters. To be noted: for HLA-DR score: desired change decrease; for uPAR score: desired change increase. The format is cell-based, human.
From the text: as §1, §2, §3, §4, §5

The next assay has as its system human primary cells. As to the kind of experiment: Total score for desired parameter modulation over the BioMAP systems of Table 1. To be noted: penalties not applied. The format is cell-based.
From the text: as §1
The relative importance of each parameter may be weighted by the screener to select those parameters of greatest interest for a particular application.
Compounds were first selected to inhibit PAI-1 in the HDFT as an indication of TBF-b signaling inhibition without being cytotoxic. […] Blank spots in Table 3 were where parameter was not assayed. Penalties were not applied for this scoring.
BioMAP Systems are designed to model complex human disease biology in a practical in vitro format. This is achieved by stimulating human primary cells (single cell type or defined mixtures of cell types) such that multiple disease-relevant signaling pathways are simultaneously active. The choice of cell types and stimulations is guided by the knowledge of disease biology and mechanisms. Incorporating appropriate cell types and stimulating signaling pathways relevant to disease states allows association of biological activities detected in BioMAP Systems with disease processes. Drug effects are then recorded by measuring biologically meaningful protein readouts that provide coverage of biological space of interest (e.g., inflammation, tissue remodeling) and allow discrimination between different drug classes tested.
as §2, §3
Readout Parameter Measurements. The levels of readout parameters were measured by ELISA.

Protocol for Fibroblasts: In the “HDF-3CGF” system, dermal fibroblast cells, usually primary human dermal fibroblast cells are cultured alone or in the presence of lung epithelial cells, usually primary human lung epithelial cells, with two or more factors selected from: TNF, IL-1, IFNγ, EGF, bFGF+HSPG (heparan sulfate proteoglycan), and PDGFbb. In some embodiments three or more factors are present, four or more, five or more, or all six factors are present.
Human neonatal dermal fibroblasts (HDFn) or adult lung fibroblasts (HDFp) or fibroblasts from tissues such as liver, heart, or kidney are used. Cells are cultured at 3×10^4 cells/ml in DMEM/F12 (50/50) from Cellgro, supplemented with LSGS kit (from Cascade Biologics); fetal bovine serum, 2% v/v, hydrocortisone 100 nM, human epidermal growth factor 10 ng/ml, basic fibroblast growth factor 3 ng/ml and heparin 10 μg/ml, and penicillin/streptomycin amphotericin B solution (PSA), until confluency. Medium is replaced with DMEM/F12 with only penicillin/streptomycin amphotericin B solution (PSA), then 24 hours later, the following are applied:
After another 24, 48 or 72 hours incubation (37° C., 5% CO2) the cultures are evaluated for the following parameters: ICAM, VCAM, CD40, CD90, IP-10, MCP-1, Collagen I, Mig, m-CSF, TIMP-2, PAI-I, IL-8, Collagen III, HLA-DR, MMP-1, MMP-9, proliferation, TGF-b1, eotaxin-3, decorin, alpha-SMC, MLCK, I-TAC, EGFR, TIMP-1.
Cell culture. […] Human dermal fibroblasts were pooled from 3 donors, cultured according to standard methods, and plated confluent 24 h before stimulation. Cell culture medium for all systems containing fibroblasts and keratinocytes contained low hydrocortisone. […] Concentrations/amounts of agents added to confluent microtiter plates to build each system: cytokines (IL-1β, 1 ng/ml; TNF-α, 5 ng/ml; IFN-γ, 20 ng/ml; IL-4, 5 ng/ml), activators (SAg, 20 ng/ml; histamine, 10 μM; zymosan, 10 μg/ml; or LPS, 2 ng/ml), growth factors (TGF-β, 5 ng/ml; EGF, bFGF, and PDGF-BB, 10 ng/ml), and PBMC (7.5×10^4 cells/well) or macrophages (3.5×10^4 cells/well).

`Cn1cnc([N+](=O)[O-])c1Sc1ncnc2nc[nH]c12` [Azathioprine]: the TF score in assay [1] came to 0. Also, in assay [2], the HLA-DR score is 0, the MMP-1 score stood at 0, the uPA score worked out at 0 and the PAI-1 score amounted to 0. The EGFR score in assay [2] is given as 0. In addition, in the assay on Fibroblasts, the PAI-1 score was 0, the MMP-1 score is 0 and the EGFR score was found to be 0. For the same molecule, in assay [3], the uPA score is 0, the PAI-1 score came out at 0 and the EGFR score turned out to be 0. Besides, in assay [4], the HLA-DR score came out at 0 and the uPAR score stood at 0. The “Score (Fraction correctly modulated parameters out of 45-58 total)” value with human primary cells is 0.12.
Consider `CCc1oc2ccccc2c1C(=O)c1cc(Br)c(O)c(Br)c1` [Benzbromarone], for which the TF score in assay [1] is given as 0. In assay [2], the HLA-DR score worked out at 0, the MMP-1 score was 1, the uPA score was 0 and the PAI-1 score worked out at 1. Moreover, in assay [2], the EGFR score is given as 0. Besides, in the assay on Fibroblasts, the PAI-1 score is recorded as 1, the MMP-1 score was 0 and the EGFR score worked out at 0. Further, in assay [3], the uPA score amounted to 1, the PAI-1 score is reported as 0 and the EGFR score is given as 0. Besides, in assay [4], the HLA-DR score is reported as 0 and the uPAR score turned out to be 0. Moreover, the “Score (Fraction correctly modulated parameters out of 45-58 total)” value in the assay with human primary cells was determined as 0.36.
In the case of `C=C1CC[C@H](O)C/C1=C/C=C1\CCC[C@]2(C)[C@@H]([C@H](C)/C=C/[C@H](C)C(C)C)CC[C@@H]12` [Calciferol], the TF score in assay [1] is 0. In addition, in assay [2], the HLA-DR score turned out to be 0, the MMP-1 score is listed as 1, the uPA score is 0 and the PAI-1 score is 0. In addition, the EGFR score in assay [2] amounted to 0. In addition, in the assay with Fibroblasts, the PAI-1 score is 1, the MMP-1 score worked out at 0 and the EGFR score is reported as 0. For the same molecule, in assay [3], the uPA score was 1, the PAI-1 score is 0 and the EGFR score was 0. In addition, in assay [4], the HLA-DR score was 0 and the uPAR score was 1. The “Score (Fraction correctly modulated parameters out of 45-58 total)” value in the assay with human primary cells was determined as 0.29.
Consider `COc1cc2c(c(OC)c1OC)-c1ccc(OC)c(=O)cc1[C@@H](NC(C)=O)CC2` [Colchicine], for which, in assay [1], the TF score was determined as 0. In addition, in assay [2], the HLA-DR score is 0, the MMP-1 score is reported as 0, the uPA score came out at 0 and the PAI-1 score came out at 0. In addition, the EGFR score in assay [2] was determined as 0. In the assay on Fibroblasts, the PAI-1 score was determined as 0, the MMP-1 score was 0 and the EGFR score amounted to 0. Moreover, in assay [3], the uPA score is 1, the PAI-1 score was 0 and the EGFR score came to 0. Also, in assay [4], the HLA-DR score was 0 and the uPAR score came to 0. The “Score (Fraction correctly modulated parameters out of 45-58 total)” value with human primary cells worked out at 0.17.
Turning to `O=C(O)c1ccccc1Nc1cccc(C(F)(F)F)c1` [Flufenamic Acid], the TF score in assay [1] is 0. Besides, in assay [2], the HLA-DR score worked out at 0, the MMP-1 score came to 0, the uPA score was found to be 0 and the PAI-1 score was determined as 1. Moreover, the EGFR score in assay [2] was 0. In the assay on Fibroblasts, the PAI-1 score was 0, the MMP-1 score worked out at 0 and the EGFR score was determined as 0. Further, in assay [3], the uPA score stood at 0, the PAI-1 score is reported as 1 and the EGFR score is given as 0. Further, in assay [4], the HLA-DR score amounted to 0 and the uPAR score amounted to 0. Besides, in the assay on human primary cells, the “Score (Fraction correctly modulated parameters out of 45-58 total)” value is 0.28.
For the molecule `Fc1ccc(C(OCCN2CCN(CCCc3ccccc3)CC2)c2ccc(F)cc2)cc1` [GBR 12909], the TF score in assay [1] turned out to be 0. In assay [2], the HLA-DR score is given as 0, the MMP-1 score is on record as 1, the uPA score is listed as 0 and the PAI-1 score was determined as 0. For the same molecule, the EGFR score in assay [2] is listed as 0. For the same molecule, in the assay with Fibroblasts, the PAI-1 score was found to be 1, the MMP-1 score is reported as 0 and the EGFR score was 0. Besides, in assay [3], the uPA score amounted to 0, the PAI-1 score is given as 0 and the EGFR score stood at 0. Besides, in assay [4], the HLA-DR score was found to be 0 and the uPAR score came to 0. Also, the “Score (Fraction correctly modulated parameters out of 45-58 total)” value with human primary cells was 0.29.
Take `CCCCN(CCCC)CCC(O)c1cc2c(Cl)cc(Cl)cc2c2cc(C(F)(F)F)ccc12` (stereo not drawn) [Halofantrine]: the TF score in assay [1] is given as 0. Moreover, in assay [2], the HLA-DR score amounted to 0, the MMP-1 score was 1, the uPA score came to 0 and the PAI-1 score was determined as 0. For the same molecule, the EGFR score in assay [2] is 0. In the assay on Fibroblasts, the PAI-1 score was 1, the MMP-1 score is 0 and the EGFR score stood at 0. Further, in assay [3], the uPA score is recorded as 0, the PAI-1 score is given as 0 and the EGFR score is given as 0. Moreover, in assay [4], the HLA-DR score is 0 and the uPAR score was found to be 0. In addition, in the assay on human primary cells, the “Score (Fraction correctly modulated parameters out of 45-58 total)” value was 0.27.
In the case of `CCN(CC)CCNc1ccc(CO)c2sc3ccccc3c(=O)c12` [Hycanthone], the TF score in assay [1] stood at 1. In addition, in assay [2], the HLA-DR score turned out to be 0, the MMP-1 score worked out at 0, the uPA score was 0 and the PAI-1 score turned out to be 1. Further, in assay [2], the EGFR score amounted to 0. In addition, in the assay on Fibroblasts, the PAI-1 score came out at 1, the MMP-1 score was 0 and the EGFR score is 0. Also, in assay [3], the uPA score is on record as 0, the PAI-1 score amounted to 1 and the EGFR score was found to be 0. In addition, in assay [4], the HLA-DR score stood at 0 and the uPAR score turned out to be 0. Further, the “Score (Fraction correctly modulated parameters out of 45-58 total)” value in the assay on human primary cells came to 0.28.
`O=c1cc(-c2ccc(O)c(O)c2)oc2cc(O)cc(O)c12` [Luteolin]: the TF score in assay [1] is listed as 1. Besides, in assay [2], the HLA-DR score is 0, the MMP-1 score was 0, the uPA score stood at 0 and the PAI-1 score was found to be 0. Besides, the EGFR score in assay [2] is listed as 0. Moreover, in the assay on Fibroblasts, the PAI-1 score stood at 1, the MMP-1 score came to 0 and the EGFR score came out at 0. In assay [3], the uPA score was found to be 0, the PAI-1 score was 0 and the EGFR score amounted to 0. Also, in assay [4], the HLA-DR score is 0 and the uPAR score is on record as 0. Further, in the assay on human primary cells, the “Score (Fraction correctly modulated parameters out of 45-58 total)” value is given as 0.36.
